Experimental findings from US8071637B2, “Dithiolopyrrolones compounds and their therapeutic applications” (Welichem Biotech Inc., priority 2006, dated 2011) are described below.

The test system of assay [1] is mouse peripheral white blood cells. Kind of assay: Activity of increasing white blood cells (WBC) in mice. The following applies: peripheral blood on day 7. In kind it is in vivo, CDF1 male mice. How it is done: This activity was determined using CDF1 male mice (18-20 g): mice were grouped as: vehicle, 30 mg/kg cyclophosphamide (CTX), 15 mg/kg test compounds. The mice were treated by IP injection: test compounds on day 1, 3, and 5 for three doses, vehicle and CTX daily for 6 days. On day 7, peripheral blood samples were collected and blood cells counted.

A further assay has as its system white blood cells. Nature of the assay: Therapeutical effect on white blood cells of mice pretreated with CTX. In kind it is in vivo, CDF1 male mice. The following applies: for number of white blood cell account, Day 6: Day 6: after CTX 30 mg/kg IP daily for 6 days, before therapeutical treatment started on 7th day. How it is done: This activity was determined using CDF1 male mice: mice were grouped and treated with daily CTX IP injection of 30 mg/kg for 6 days. […] Positive control group was treated with daily subcutaneously injection of 20 μg/kg G-CSF. Peripheral blood samples were collected and blood cells counted on the 10th day.

In assay [2] the test system is white blood cells of beagle dog. Kind of assay: Activity of increasing WBC in dogs. The class given is in vivo. The following applies: for WBC: blood count day 5; for % increase (compared with the control): day 5. Here is the method: The effect of the test compounds was tested on beagle dog with a daily IV injection at different doses for four days. The blood account was done at day 5.

For `O=P1(N(CCCl)CCCl)NCCCO1` (centres unmarked) [CTX, cyclophosphamide, reference compound], in assay [1] (CTX 30 mg/kg IP daily for 6 days), the WBC was 1.41 ± 0.50 ×10^9/L. Further, the “number of white blood cell account, Day 6” value (“number … Day 6” below) in the assay with white blood cells was 1.5 ± 0.2 ×10^9/L. The “number of white blood cell account, Day 10” value (“number … Day 10” below) in the assay on white blood cells (Day 10: CTX 30 mg/kg IP daily for 6 days only) is recorded as 4.8 ± 0.8 ×10^9/L.

Regarding `COc1ccc(-n2c3cssc-3c(NC(=O)c3cc(C(F)(F)F)cc(C(F)(F)F)c3)c2=O)c(OC)c1` [compound 0058, N-[4-(2,4-Dimethoxy-phenyl)-5-oxo-4,5-dihydro-[1,2]dithiolo[4,3-b]pyrrol-6-yl]-3,5-bis-trifluoromethyl-benzamide], the WBC in assay [1] (test compound 15 mg/kg IP on day 1, 3 and 5) is reported as 23.9 ± 8.9 ×10^9/L; in assay [2] (1 mg/kg daily IV for four days), 13.0 ± 2.0 ×10^9/L; in assay [2] (2 mg/kg daily IV for four days) it was 16.8 ± 1.0 ×10^9/L; in assay [2] (4 mg/kg daily IV for four days), 21.5 ± 4.1 ×10^9/L; in assay [2] (8 mg/kg daily IV for four days), 28.8 ± 7.0 ×10^9/L. The “% increase (compared with the control)” value in assay [2] (1 mg/kg daily IV for four days) came out at 15.9%; in assay [2] (2 mg/kg daily IV for four days), 48.2%; in assay [2] (4 mg/kg daily IV for four days), 90.3%; in assay [2] (8 mg/kg daily IV for four days), 154.9%. Also, the “effect on white blood accounts in dogs (in words)” value in assay [2] (daily IV, 1-8 mg/kg, four days) is reported as “significantly increased white blood accounts”. The “number … Day 6” value in the assay with white blood cells is 2.1 ± 0.8 ×10^9/L. For the same molecule, in the assay with white blood cells (Day 10: CTX 30 mg/kg x 6 days, then test compound 15 mg/kg daily for 3 days from day 7), the “number … Day 10” value is 16.2 ± 2.1 ×10^9/L.

B1: G-CSF: granulocyte-colony stimulating factor, protein that selectively stimulates production of white blood cells; positive control (protein, chains of the INN, looked up)
chain: MTPLGPASSLPQSFLLKCLEQVRKIQGDGAALQEKLCATYKLCHPEELVLLGHSLGIPWAPLSSCPSQALQLAGCLSQLHSGLFLYQGLLQALEGISPELGPTLDTLQLDVADFATTIWQQMEELGMAPALQPTQGAMPAFASAFQRRAGGVLVASHLQSFLEVSYRVLRHLAQP
modifications: N-terminal methionine, non-glycosylated
With B1, the “number … Day 6” value in the assay on white blood cells is 1.8 ± 0.7 ×10^9/L. In addition, the “number … Day 10” value in the assay with white blood cells (Day 10: CTX 30 mg/kg x 6 days, then G-CSF 20 μg/kg daily subcutaneously (positive control)) is on record as 14.7 ± 1.8 ×10^9/L.
